Assay results: patent publication US12568967B2, “Compositions comprising pyridine carboxylate herbicides with synthetic auxin herbicides or auxin transport inhibitors” (priority 2018, dated 2026)
Several values for one entry are separate records, joined by “and”; a condition that tells them apart may be missing. Equal entries are not always repeated. Where two headings read alike, the source gives them in different places.

Assays:
[1] = tested on: Cirsium arvense (Canadian thistle, CIRAR); assay: Greenhouse postemergence trial CIRAR; assay type: in vivo
[2] = tested on: Kochia scoparia (kochia, KCHSC); assay: Greenhouse postemergence trial KCHSC; assay type: in vivo
Method: (§1) Seeds of the desired test plant species were planted in a 90:10% v/v (volume/volume) mixture of PRO-MIX® BX (Premier Tech Horticulture, Quakertown, PA, USA) and PROFILE® GREENS GRADE™ (Profile Products LLC, Buffalo Grove, IL, USA) planting mixture, which typically has a pH of 5.2 to 6.2 and an organic matter content of at least 50 percent, in plastic pots with a surface area of 103.2 square centimeters (cm^2). […] The plants were grown for 7-36 days (d) in a greenhouse with an approximate 14-hour (h) photo-period which was maintained at about 23° C. during the day and 22° C. during the night. Nutrients and water were added on a regular basis and supplemental lighting was provided with overhead metal halide 1000-Watt lamps as necessary. The plants were employed for testing when they reached the second or third true leaf stage.
(§2) Emulsifiable concentrates of each of each pyridine carboxylate herbicide (Compound A or Compound B) were prepared at 100 grams acid equivalent per liter (g ae/L). The emulsifiable concentrates also included a safener, cloquintocet-mexyl, at 120 grams active ingredient per liter (g ai/L), unless otherwise noted below. An aliquot of each emulsifiable concentrate was placed in a 25 mL glass vial and diluted with an aqueous mixture of 1.25% (v/v) ACTIROB® B esterified rapeseed oil (Bayer Crop Science, Research Triangle Park, NC, USA) or MSO® Concentrate with LECI-TECH® methylated soybean oil (Loveland Products, Loveland, CO, USA) to obtain concentrated stock solutions at the highest application rate for each herbicide, based upon a 12 milliliter (mL) application volume at a rate of 187 liters per hectare (L/ha). The concentrated stock solutions were further diluted with an aqueous mixture of 1.25% v/v ACTIROB® B or MSO® Concentrate with LECI-TECH® to obtain stock solutions at reduced application rates for each herbicide. Spray solutions of the herbicide combinations (Compound A or Compound B plus synthetic auxin herbicide or auxin transport inhibitor) were prepared by adding weighed amounts or aliquots of the synthetic auxin herbicide or auxin transport inhibitor to the stock solutions of Compound A or Compound B to form 12-mL spray solutions in two-way combinations.
(§3) The spray solutions were applied to the plant material with an overhead Mandel track sprayer equipped with 8002E nozzles calibrated to deliver 187 L/ha over an application area of 0.503 square meters (m^2) at a spray height of 18 inches (43 centimeters (cm)) above the average plant canopy. Control plants were sprayed in the same manner with the solvent blank. All pyridine carboxylate herbicide (component a) application rates are given as “g ae/ha” and all synthetic auxin herbicide or auxin transport inhibitor (component b) application rates are given as “g ai/ha.”
(§4) The treated plants and control plants were placed in a greenhouse as described above and watered by sub-irrigation to prevent wash-off of the test compounds. After 20-22 d, the condition of the test plants as compared with that of the control plants was determined visually and scored on a scale of 0 to 100 percent where 0 corresponds to no injury and 100 corresponds to complete kill.

[3] = tested on: Chenopodium album L. (common lambsquarters, CHEAL); assay: Greenhouse postemergence trial CHEAL; assay type: in vivo;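 further: greenhouse plants sprayed at second to third true leaf stage, injury rated by eye after 20-22 d versus solvent-blank sprayed controls, 0 = no injury, 100 = complete kill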
[4] = tested on: Matricaria chamomilla (wild chamomile, MATCH); assay: Greenhouse postemergence trial MATCH; assay type: in vivo;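 further: greenhouse plants sprayed at second to third true leaf stage, injury rated by eye 20-22 d later versus solvent-blank controls on 0–100 scale, 0 no injury, 100 complete kill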
Method: The plants were grown for 7-36 days (d) in a greenhouse with an approximate 14-hour (h) photo-period which was maintained at about 23° C. during the day and 22° C. during the night. Nutrients and water were added on a regular basis and supplemental lighting was provided with overhead metal halide 1000-Watt lamps as necessary. The plants were employed for testing when they reached the second or third true leaf stage.
The emulsifiable concentrates also included a safener, cloquintocet-mexyl, at 120 grams active ingredient per liter (g ai/L), unless otherwise noted below.
Control plants were sprayed in the same manner with the solvent blank. All pyridine carboxylate herbicide (component a) application rates are given as “g ae/ha” and all synthetic auxin herbicide or auxin transport inhibitor (component b) application rates are given as “g ai/ha.”
as §4

[5] = tested on: Triticum aestivum (spring wheat, TRZAS); assay type: in vivo
[6] = tested on: Cyanus segetum (cornflower, CENCY); assay: Greenhouse postemergence trial CENCY; assay type: in vivo; settings: CENCY; for % visual injury Obs: alone; for % visual injury, Obs: applied alone
[7] = tested on: Papaver rhoeas (corn poppy), herbicide-resistant (PAPRH-R); assay: Greenhouse postemergence trial PAPRH-R; assay type: in vivo; settings: PAPRH-R; for % visual injury, Obs: applied alone
[8] = tested on: Matricaria inodora (false chamomile, MATIN); assay: Greenhouse postemergence trial MATIN; assay type: in vivo; settings: MATIN; for % visual injury, Obs: applied alone
Method: as §1, §2, §3, §4

[9] = tested on: Ipomoea hederacea (ivyleaf morningglory, IPOHE); assay: Greenhouse postemergence trial IPOHE; assay type: in vivo; settings: Compound A 10 g/ha
Method: as §1, §2, §3, §4

[10] = tested on: Alopecurus myosuroides (blackgrass, ALOMY); assay: Greenhouse postemergence trial ALOMY; assay type: in vivo; settings: Compound A 10 g/ha
Method: as §1
(§5) Emulsifiable concentrates of each of each pyridine carboxylate herbicide (Compound A or Compound B) were prepared at 100 grams acid equivalent per liter (g ae/L). The emulsifiable concentrates also included a safener, cloquintocet-mexyl, at 120 grams active ingredient per liter (g ai/L), unless otherwise noted below. An aliquot of each emulsifiable concentrate was placed in a 25 mL glass vial and diluted with an aqueous mixture of 1.25% (v/v) ACTIROB® B esterified rapeseed oil (Bayer Crop Science, Research Triangle Park, NC, USA) or MSO® Concentrate with LECI-TECH® methylated soybean oil (Loveland Products, Loveland, CO, USA) to obtain concentrated stock solutions at the highest application rate for each herbicide, based upon a 12 milliliter (mL) application volume at a rate of 187 liters per hectare (L/ha). The concentrated stock solutions were further diluted with an aqueous mixture of 1.25% v/v ACTIROB® B or MSO® Concentrate with LECI-TECH® to obtain stock solutions at reduced application rates for each herbicide. Spray solutions of the herbicide combinations (Compound A or Compound B plus synthetic auxin herbicide or auxin transport inhibitor) were prepared by adding weighed amounts or aliquots of the synthetic auxin herbicide or auxin transport inhibitor to the stock solutions of Compound A or Compound B to form 12-mL spray solutions in two-way combinations. […]
as §4

[11] = tested on: Echinochloa crus-galli (barnyard grass, ECHCG); assay: Greenhouse postemergence trial ECHCG; assay type: in vivo; settings: Compound A 10 g/ha
Method: as §1, §2, §3, §4

[12] = tested on: Cyperus esculentus (nutsedge, CYPES); assay: Greenhouse postemergence trial CYPES; assay type: in vivo; settings: Compound A 10 g/ha
Method: as §1, §5, §4

[13] = tested on: Digitaria sanguinalis (large crabgrass, DIGSA); assay: Greenhouse postemergence trial DIGSA; assay type: in vivo; settings: Compound A 10 g/ha
Method: as §1, §2, §3, §4

[14] = tested on: Lamium purpureum (purple deadnettle, LAMPU); assay: Greenhouse postemergence trial LAMPU; settings: for % visual injury, Obs: applied alone
[15] = Compound A 10 g/ha, without safener
[16] = Triticum aestivum (spring wheat, TRZAS), in vivo
[17] = Lamium purpureum, post-emergence, read-out: % visual injury Obs

Which results are given for `N#CCOC(=O)c1nc(-c2ccc3cc[nH]c3c2F)c(F)c(N)c1Cl` [Compound A, cyanomethyl 4-amino-3-chloro-5-fluoro-6-(7-fluoro-1H-indol-6-yl)pyridine-2-carboxylate]?
% visual injury, Obs ([1]; CIRAR, Compound A 10 g/ha): 20% and 30% and 28%; visual injury, Obs ([1]; CIRAR, Compound A 10 g/ha alone): 50%; visual injury, Obs ([1]; CIRAR, Compound A 15 g/ha alone): 60%; % visual injury (Obs) ([1]; CIRAR, alone 10 g/ha): 23% and 30%; % visual injury Obs ([1]; CIRAR, alone 10 g/ha): 50%; % visual injury Obs ([1]; CIRAR, alone, 15 g/ha): 60%; % visual injury, Obs ([1]; CIRAR, applied alone, 10 g/ha): 50% and 55%; % visual injury, Obs ([1]; CIRAR, applied alone, 15 g/ha): 60%; pest or weed control at […] ([1]; Cirsium arvense, post-emergence, CIRAR, Compound A 7.5 g/ha, read-out: % visual injury Obs): 30%; pest or weed control at 10 g/ha ([1]; Cirsium arvense, post-emergence, CIRAR, Compound A 10 g/ha, read-out: % visual injury Obs): 50%; pest or weed control at 15 g/ha ([1]; Cirsium arvense, post-emergence, CIRAR, Compound A 15 g/ha, read-out: % visual injury Obs): 60%; CIRAR Obs (% visual injury) ([1]; Compound A 10 g/ha): 20% and 23%; CIRAR % visual injury Obs ([1]; Compound A 10 g/ha (Table 42)): 20%; CIRAR % visual injury Obs ([1]; Compound A 10 g/ha (Table 43)): 20%; CIRAR % visual injury Obs ([1]; Compound A 10 g/ha (Table 44)): 20%; CIRAR Obs (% visual injury) [1, 15]: 28%; pest or weed control at […] ([2]; Bassia scoparia, post-emergence, KCHSC, Compound A 7.5 g/ha, read-out: % visual injury Obs): 70%; pest or weed control at 10 g/ha ([2]; Bassia scoparia, post-emergence, KCHSC, Compound A 10 g/ha, read-out: % visual injury Obs): 75%; pest or weed control at 15 g/ha ([2]; Bassia scoparia, post-emergence, KCHSC, Compound A 15 g/ha, read-out: % visual injury Obs): 80%; KCHSC Obs (% visual injury) ([2]; Compound A 10 g/ha): 65% and 55%; KCHSC % visual injury Obs ([2]; Compound A 10 g/ha (Table 42)): 65%; KCHSC % visual injury Obs ([2]; Compound A 10 g/ha (Table 43)): 65%; KCHSC % visual injury Obs ([2]; Compound A 10 g/ha (Table 44)): 65%; KCHSC Obs (% visual injury) [2, 15]: 88%; % visual injury Obs ([2]; KCHSC, Compound A 10 g/ha): 75%; % visual injury, Obs ([2]; KCHSC, Compound A 10 g/ha): 65% and 70% and 88%; visual injury, Obs ([2]; KCHSC, Compound A 10 g/ha alone): 75%; visual injury, Obs ([2]; KCHSC, Compound A 15 g/ha alone): 80%; % visual injury (Obs) ([2]; KCHSC, alone 10 g/ha): 68% and 55% and 70%; % visual injury Obs ([2]; KCHSC, alone 10 g/ha): 75%; % visual injury Obs ([2]; KCHSC, alone, 15 g/ha): 80%; % visual injury, Obs ([2]; KCHSC, applied alone, 10 g/ha): 75% and 70%; % visual injury, Obs ([2]; KCHSC, applied alone, 15 g/ha): 80%; % visual injury, Obs ([3]; CHEAL, Compound A 10 g/ha): 88% and 78%; % visual injury (Obs) ([3]; CHEAL, alone 10 g/ha): 90% and 78%; % visual injury, Obs ([3]; CHEAL, applied alone, 10 g/ha): 80%; CHEAL Obs (% visual injury) ([3]; Compound A 10 g/ha): 88% and 90%; CHEAL % visual injury Obs ([3]; Compound A 10 g/ha (Table 42)): 88%; CHEAL % visual injury Obs ([3]; Compound A 10 g/ha (Table 43)): 88%; CHEAL % visual injury Obs ([3]; Compound A 10 g/ha (Table 44)): 88%; MATCH % visual injury Obs ([4]; Compound A 10 g/ha (Table 42)): 13%; MATCH % visual injury Obs ([4]; Compound A 10 g/ha (Table 43)): 13%; MATCH % visual injury Obs ([4]; Compound A 10 g/ha (Table 44)): 13%; % visual injury, Obs ([4]; MATCH, Compound A 10 g/ha): 30%; visual injury, Obs ([4]; MATCH, Compound A 10 g/ha alone): 20%; visual injury, Obs ([4]; MATCH, Compound A 15 g/ha alone): 20%; % visual injury (Obs) ([4]; MATCH, alone 10 g/ha): 33% and 30%; % visual injury Obs ([4]; MATCH, alone 10 g/ha): 20%; % visual injury Obs ([4]; MATCH, alone, 15 g/ha): 20%; % visual injury, Obs ([4]; MATCH, applied alone, 10 g/ha): 20%; % visual injury, Obs ([4]; MATCH, applied alone, 15 g/ha): 20%; pest or weed control at […] ([4]; Matricaria chamomilla, post-emergence, MATCH, Compound A 7.5 g/ha, read-out: % visual injury Obs): 15%; pest or weed control at 10 g/ha ([4]; Matricaria chamomilla, post-emergence, MATCH, Compound A 10 g/ha, read-out: % visual injury Obs): 20%; pest or weed control at 15 g/ha ([4]; Matricaria chamomilla, post-emergence, MATCH, Compound A 15 g/ha, read-out: % visual injury Obs): 20%; TRZAS Obs (% visual injury) ([5]; Compound A 10 g/ha): 0%; TRZAS % visual injury Obs ([5]; Compound A 10 g/ha (Table 42)): 0%; TRZAS % visual injury Obs ([5]; Compound A 10 g/ha (Table 43)): 0%; TRZAS % visual injury Obs ([5]; Compound A 10 g/ha (Table 44)): 0%; % visual injury Obs ([5]; TRZAS, Compound A 10 g/ha): 0%; % visual injury, Obs ([5]; TRZAS, Compound A 10 g/ha): 0%; visual injury, Obs ([5]; TRZAS, Compound A 10 g/ha alone): 0%; % visual injury Obs ([5]; TRZAS, Compound A 15 g/ha): 0%; visual injury, Obs ([5]; TRZAS, Compound A 15 g/ha alone): 0%; % visual injury (Obs) ([5]; TRZAS, alone 10 g/ha): 0%; % visual injury Obs ([5]; TRZAS, alone 10 g/ha): 0%; % visual injury Obs ([5]; TRZAS, alone, 15 g/ha): 0%; % visual injury, Obs ([5]; TRZAS, applied alone, 10 g/ha): 0%; % visual injury, Obs ([5]; TRZAS, applied alone, 15 g/ha): 0%; % visual injury (crop phytotoxicity) [5, 16]: 0%; % visual injury, Obs (crop phytotoxicity) [5, 16]: 0%; % visual injury (crop phytotoxicity) ([5]; c1-2 Compound A 7.5/10, c3 Quinclorac 140, c4-5 A 7.5/10 + Quinclorac 140 g/ha): 0%; % visual injury (crop phytotoxicity) ([5]; c1-3 Compound A 7.5/10/15, c4-5 Fluroxypyr-MHE 100/140, c6-8, c9-11 A 7.5/10/15 + Fluroxypyr-MHE 100, 140 g/ha): 0%; % visual injury (crop phytotoxicity) ([5]; c1-3 Compound A 7.5/10/15, c4 Aminopyralid 5, c5-7 A 7.5/10/15 + Aminopyralid 5 g/ha): 0%; % visual injury (crop phytotoxicity) ([5]; c1-3 Compound A 7.5/10/15, c4 Halauxifen-methyl 6, c5-7 A 7.5/10/15 + Halauxifen-methyl 6 g/ha): 0%; visual injury, Obs ([6]; Compound A 10 g/ha alone): 100%; visual injury, Obs ([6]; Compound A 15 g/ha alone): 100%; % visual injury Obs ([6]; 10 g/ha): 100%; % visual injury Obs ([6]; 15 g/ha): 100%; % visual injury, Obs ([6]; 10 g/ha): 100%; % visual injury, Obs ([6]; 15 g/ha): 100%; pest or weed control at […] ([6]; Centaurea cyanus, post-emergence, Compound A 7.5 g/ha, read-out: % visual injury Obs): 100%; pest or weed control at 10 g/ha ([6]; Centaurea cyanus, post-emergence, Compound A 10 g/ha, read-out: % visual injury Obs): 100%; pest or weed control at 15 g/ha ([6]; Centaurea cyanus, post-emergence, Compound A 15 g/ha, read-out: % visual injury Obs): 100%; % visual injury Obs ([7]; Compound A 10 g/ha): 90%; visual injury, Obs ([7]; Compound A 10 g/ha alone): 90%; visual injury, Obs ([7]; Compound A 15 g/ha alone): 100%; % visual injury Obs ([7]; alone, 10 g/ha): 90%; % visual injury Obs ([7]; alone, 15 g/ha): 100%; % visual injury, Obs ([7]; 10 g/ha): 90%; % visual injury, Obs ([7]; 15 g/ha): 100%; pest or weed control at […] ([7]; Papaver rhoeas, post-emergence, Compound A 7.5 g/ha, read-out: % visual injury Obs): 85%; pest or weed control at 10 g/ha ([7]; Papaver rhoeas, post-emergence, Compound A 10 g/ha, read-out: % visual injury Obs): 90%; pest or weed control at 15 g/ha ([7]; Papaver rhoeas, post-emergence, Compound A 15 g/ha, read-out: % visual injury Obs): 100%; visual injury, Obs ([8]; Compound A 10 g/ha alone): 60%; visual injury, Obs ([8]; Compound A 15 g/ha alone): 60%; % visual injury (Obs) ([8]; alone 10 g/ha): 93%; % visual injury Obs ([8]; alone 10 g/ha): 60%; % visual injury Obs ([8]; alone, 15 g/ha): 60%; % visual injury, Obs ([8]; 10 g/ha): 60%; % visual injury, Obs ([8]; 15 g/ha): 60%; pest or weed control at […] ([8]; Tripleurospermum inodorum, post-emergence, Compound A 7.5 g/ha, read-out: % visual injury Obs): 30%; pest or weed control at 10 g/ha ([8]; Tripleurospermum inodorum, post-emergence, Compound A 10 g/ha, read-out: % visual injury Obs): 60%; pest or weed control at 15 g/ha ([8]; Tripleurospermum inodorum, post-emergence, Compound A 15 g/ha, read-out: % visual injury Obs): 60%; IPOHE Obs (% visual injury) ([9]; without safener): 15%; % visual injury, Obs ([9]; IPOHE): 15%; % visual injury, Obs ([10]; ALOMY): 0%; ALOMY Obs (% visual injury) ([10]; without safener): 0%; ECHCG Obs (% visual injury) [11]: 78%; ECHCG Obs (% visual injury) ([11]; without safener): 58%; % visual injury, Obs ([11]; ECHCG): 58%; % visual injury, Obs ([12]; CYPES): 0%; CYPES Obs (% visual injury) ([12]; without safener): 0%; DIGSA Obs (% visual injury) [13]: 25%; DIGSA Obs (% visual injury) ([13]; without safener): 8%; % visual injury, Obs ([13]; DIGSA): 8%; visual injury, Obs ([14]; LAMPU, Compound A 10 g/ha alone): 70%; % visual injury Obs ([14]; LAMPU, Compound A 15 g/ha): 75%; visual injury, Obs ([14]; LAMPU, Compound A 15 g/ha alone): 75%; % visual injury (Obs) ([14]; LAMPU, alone 10 g/ha): 90%; % visual injury Obs ([14]; LAMPU, alone 10 g/ha): 70%; % visual injury Obs ([14]; LAMPU, alone, 15 g/ha): 75%; % visual injury, Obs ([14]; LAMPU, 10 g/ha): 70%; % visual injury, Obs ([14]; LAMPU, 15 g/ha): 75%; pest or weed control at 10 g/ha [14, 17]: 70%; pest or weed control at 15 g/ha [14, 17]: 75%
